Activity calls are given as the source filed them. The calls were made as follows: active = viability on the fitted dose curve at most 10% of control; inactive = the rest.
Test system: NCI-H719 tumor spheroids, viability
Test: Anticancer human tumor NCI-H719 cell line growth inhibition;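 as to IC50: spheroids exposed to compounds for seven days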;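 as to viability, T/C: spheroids exposed to compounds for seven days; percent viability relative to DMSO vehicle control as 100%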
Details: spheroids with HUVEC and MSC; for IC50: curve of first compound; for viability, T/C: stronger effect = lower value
In short: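 Complex spheroids of malignant cells with endothelial cells and mesenchymal stem cells; agents alone or combined, from near clinical Cmax (or 10 microM if unknown) down in half-log steps, 0.25% DMSO final.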

## Cn1ncnc1[C@H]1c2n[nH]c(=O)c3cc(F)cc(c23)N[C@@H]1c1ccc(F)cc1 + Cn1nnc2c(C(N)=O)ncn2c1=O
Second compound 1 µM
  IC50: < 0.00949 µM
Second compound 3.16 µM
  IC50: < 0.00949 µM
Second compound 10 µM
  IC50: < 0.00949 µM
Second compound 31.6 µM
  IC50: < 0.00949 µM
Second compound 100 µM
  IC50: < 0.00949 µM
Second compound 1 µM, first compound 0.00949 µM
  viability, T/C: 18.9%
Second compound 1 µM, first compound 0.03 µM
  viability, T/C: 7.46%
Second compound 1 µM, first compound 0.0949 µM
  viability, T/C: 7.66%
Second compound 1 µM, first compound 0.3 µM
  viability, T/C: 7.07%
Second compound 1 µM, first compound 0.949 µM
  viability, T/C: 6.65%
Second compound 1 µM, first compound 3 µM
  viability, T/C: 7.52%
Second compound 3.16 µM, first compound 0.00949 µM
  viability, T/C: 14.8%
Second compound 3.16 µM, first compound 0.03 µM
  viability, T/C: 7.76%
Second compound 3.16 µM, first compound 0.0949 µM
  viability, T/C: 7.04%
Second compound 3.16 µM, first compound 0.3 µM
  viability, T/C: 7.11%
Second compound 3.16 µM, first compound 0.949 µM
  viability, T/C: 7.41%
Second compound 3.16 µM, first compound 3 µM
  viability, T/C: 8.3%
Second compound 10 µM, first compound 0.00949 µM
  viability, T/C: 7.72%
Second compound 10 µM, first compound 0.03 µM
  viability, T/C: 6.58%
Second compound 10 µM, first compound 0.0949 µM
  viability, T/C: 7.6%
Second compound 10 µM, first compound 0.3 µM
  viability, T/C: 6.29%
Second compound 10 µM, first compound 0.949 µM
  viability, T/C: 30.5%
Second compound 10 µM, first compound 3 µM
  viability, T/C: 8.25%
Second compound 31.6 µM, first compound 0.00949 µM
  viability, T/C: 6.42%
Second compound 31.6 µM, first compound 0.03 µM
  viability, T/C: 7.02%
Second compound 31.6 µM, first compound 0.0949 µM
  viability, T/C: 7.1%
Second compound 31.6 µM, first compound 0.3 µM
  viability, T/C: 7.06%
Second compound 31.6 µM, first compound 0.949 µM
  viability, T/C: 7.26%
Second compound 31.6 µM, first compound 3 µM
  viability, T/C: 9.15%
Second compound 100 µM, first compound 0.00949 µM
  viability, T/C: 7.03%
Second compound 100 µM, first compound 0.03 µM
  viability, T/C: 6.67%
Second compound 100 µM, first compound 0.0949 µM
  viability, T/C: 6.67%
Second compound 100 µM, first compound 0.3 µM
  viability, T/C: 7.34%
Second compound 100 µM, first compound 0.949 µM
  viability, T/C: 7.7%
Second compound 100 µM, first compound 3 µM
  viability, T/C: 9.27%

## Cc1cc(C)c(CNC(=O)c2cc(-c3ccc(CN4CCOCC4)cc3)cc3c2cnn3C2CCCC2)c(=O)[nH]1 + Cn1nnc2c(C(N)=O)ncn2c1=O
Second compound 1 µM
  IC50: > 10 µM
Second compound 3.16 µM
  IC50: > 10 µM
Second compound 10 µM
  IC50: > 10 µM
Second compound 31.6 µM
  IC50: > 10 µM
Second compound 100 µM
  IC50: > 10 µM
Second compound 1 µM, first compound 0.0316 µM
  viability, T/C: 96.9%
Second compound 1 µM, first compound 0.1 µM
  viability, T/C: 105%
Second compound 1 µM, first compound 0.316 µM
  viability, T/C: 100%
Second compound 1 µM, first compound 1 µM
  outcome: inactive
Second compound 1 µM, first compound 3.16 µM
  viability, T/C: 94%
Second compound 1 µM, first compound 10 µM
  viability, T/C: 76.5%
Second compound 3.16 µM, first compound 0.0316 µM
  viability, T/C: 105%
Second compound 3.16 µM, first compound 0.1 µM
  viability, T/C: 102%
Second compound 3.16 µM, first compound 0.316 µM
  viability, T/C: 108%
Second compound 3.16 µM, first compound 1 µM
  viability, T/C: 107%
Second compound 3.16 µM, first compound 3.16 µM
  viability, T/C: 92.2%
Second compound 3.16 µM, first compound 10 µM
  viability, T/C: 82.2%
Second compound 10 µM, first compound 0.0316 µM
  viability, T/C: 105%
Second compound 10 µM, first compound 0.1 µM
  outcome: inactive
Second compound 10 µM, first compound 0.316 µM
  viability, T/C: 108%
Second compound 10 µM, first compound 1 µM
  viability, T/C: 110%
Second compound 10 µM, first compound 3.16 µM
  viability, T/C: 94.3%
Second compound 10 µM, first compound 10 µM
  viability, T/C: 94.5%
Second compound 31.6 µM, first compound 0.0316 µM
  viability, T/C: 113%
Second compound 31.6 µM, first compound 0.1 µM
  viability, T/C: 119%
Second compound 31.6 µM, first compound 0.316 µM
  viability, T/C: 123%
Second compound 31.6 µM, first compound 1 µM
  viability, T/C: 108%
Second compound 31.6 µM, first compound 3.16 µM
  viability, T/C: 94.6%
Second compound 31.6 µM, first compound 10 µM
  viability, T/C: 85.7%
Second compound 100 µM, first compound 0.0316 µM
  viability, T/C: 101%
Second compound 100 µM, first compound 0.1 µM
  viability, T/C: 108%
Second compound 100 µM, first compound 0.316 µM
  viability, T/C: 103%
Second compound 100 µM, first compound 1 µM
  viability, T/C: 103%
Second compound 100 µM, first compound 3.16 µM
  viability, T/C: 107%
Second compound 100 µM, first compound 10 µM
  viability, T/C: 76.8%

Source: PubChem BioAssay AID1845212 (Molecular Pharmacology Branch, DTP, NCI, 2023)
